Measurements taken from patent publication US20040161419A1, “Placental stem cells and uses thereof” (priority 2002, published 2004).
Values belong to the compound of their own block, whether it stands above or below them.

Legend:
[1] = test system: placental stem cells; assay: Differentiation into cardiomyocytes (RT-PCR); type: cell-based, human; details: 1 mM, day 14 versus day 0, RT-PCR
Protocol: Placental stem cells (PSCs) were cultured in the presence of L-Ascorbic acid 2-phosphate (1 mM) for 14 days. Total RNA was extracted on day 0 and day 14 and used for RT-PCR analysis. Cardiomyocyte specific genes primers were designed specifically for cardiac transcription factor GATA-4, atrial myosin light chain type 2 (MLC-2A), ventricular myosin light chain type 2 (MLC-2V), human atrial natriuretic peptide (hANP), and cardiac troponin T (cTnT). The PCR reaction conditions were 45 cycles/57° C. annealing temperature. The PCR products were size fractioned by 2.5% agarose gel electrophoresis.

[2] = test system: placental stem cells
Protocol: The cells were cultured for either 7-10 days or until the cultures grew to confluence. The cells were trypsinized and reseeded in 6 well plates. The cells were subjected to different culture conditions, having varying growth factors supplementing the DMEM or MEM based medium. […] Placental stem cells were cultured for an additional 14 days. At the end of 14 days, the cells were evaluated for the expression of human albumin, CYP3A4, A1AT, or C/EBP-alpha.

[3] = test system: placental stem cells; assay: Differentiation into pancreatic cells (RT-PCR); type: cell-based, human; details: on Matrigel, 14 days
Protocol: Placental stem cells were maintained in standard growth media for 7 days and then trypsinized and seeded on cultures previously coated with matrigel (MG), a commercially available form of basement membrane proteins. Cultures were coated with 20% (v/v; matrigel to media) or 100% matrigel with essentially identical results. […] After 10-14 days the cells were lysed and RNA was isolated, and reverse transcriptase-PCR analysis was conducted with PCR primers specific for Pax 6, PDX-1 Nkx2.2, insulin, glucagon and an internal control, beta-actin.

[4] = test system: placental stem cells; assay: Differentiation into neural cells; type: cell-based, human
Protocol: […] Immunohistochemical analysis of the expression of the different genes was conducted with antibodies specific to the human proteins.

[5] = test system: CYP1A1/2; assay: EROD assay (ethoxyresorufin-o-deethylase); type: cell-based; details: prior exposure 50 uM; human hepatocytes and hepatocytes derived from PSCs
Protocol: Human hepatocytes were cultured using the conditions of Strom et al. Methods in Enzymology 272:388-401 (1996).
An EROD assay which measures the conversion of ethoxy-resorufin to hydroxyresorufin was used to detect expression of CYP1A1 or CYP1A2 in human hepatocytes and hepatocytes derived from placental stem cells (Kelley et al. J. Biomolecular Screening 5:249-253 (2000). CYP1A activity in these cells was induced by exposing the hepatocytes to beta-naphthoflavone (50 uM).

Compound: O=C1O[C@H]([C@@H](O)CO)C(O)=C1OP(=O)(O)O [L-Ascorbic acid 2-phosphate]
expression of MLC-2A and MLC-2V genes [1]: significantly up-regulated

Compound: hepatocyte growth factor (HGF): hepatocyte growth factor, media supplement
liver specific gene expression (albumin, CYP3A4, A1AT, C/EBP-alpha) [2]: did not enhance liver specific gene expression

Compound: NC(=O)c1cccnc1 [nicotinamide]
expression of pancreatic markers (insulin, glucagon, PDX-1, Pax6, Nkx2.2) [3]: express insulin and glucagon

Compound: CC1=C(/C=C/C(C)=C/C=C/C(C)=C/C(=O)O)C(C)(C)CCC1 [all trans retinoic acid, all-trans retinoic acid]
expression of GFAP, beta-tubulin III and CNP ([4]; immunofluorescence, FIG. 9A): express | expression of nestin and glutamic acid decarboxylase (GAD) ([4]; over 7 days of culture, FIG. 9B): increase

effect on EROD activity [5]: induced
Compound: O=c1cc(-c2ccccc2)oc2ccc3ccccc3c12 [beta-naphthoflavone (BNF), beta-naphthoflavone]

Compound: FGF 2: fibroblast growth factor 2, media supplement
liver specific gene expression (albumin, CYP3A4, A1AT, C/EBP-alpha) [2]: did not enhance liver specific gene expression
